For the experiment, the target named is Peroxisome proliferator-activated receptor gamma (Homo sapiens, UniProt P37231). Description: PubChem AID 463257.
Sequence of Peroxisome proliferator-activated receptor gamma (P37231 whole entry, looked up): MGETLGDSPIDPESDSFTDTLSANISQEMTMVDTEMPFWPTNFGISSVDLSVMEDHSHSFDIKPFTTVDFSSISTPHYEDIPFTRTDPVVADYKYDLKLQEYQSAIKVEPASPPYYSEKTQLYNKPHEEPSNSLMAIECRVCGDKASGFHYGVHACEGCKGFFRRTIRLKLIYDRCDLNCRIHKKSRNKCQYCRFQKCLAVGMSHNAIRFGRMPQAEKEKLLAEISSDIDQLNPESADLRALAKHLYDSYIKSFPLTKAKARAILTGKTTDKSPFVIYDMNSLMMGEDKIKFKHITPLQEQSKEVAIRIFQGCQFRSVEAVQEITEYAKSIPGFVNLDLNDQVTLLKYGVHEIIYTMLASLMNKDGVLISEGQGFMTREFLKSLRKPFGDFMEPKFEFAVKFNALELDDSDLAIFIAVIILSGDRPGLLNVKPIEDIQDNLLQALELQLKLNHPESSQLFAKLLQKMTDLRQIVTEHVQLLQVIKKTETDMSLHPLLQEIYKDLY

For `COc1ccc(-n2cc(O)c(-c3nc(-c4ccccc4)cs3)c2N)cc1` [5-amino-1-(4-methoxyphenyl)-4-(4-phenyl-1,3-thiazol-2-yl)-2H-pyrrol-3-one], half-maximal inhibition (IC50) was put at 24.7 µM.

(Values after BindingDB's records for doi:10.7270/Q26T0K34 (The Scripps Research Institute Molecular Screening Center, 2010).)
